In paper PMC11750451, “Diarylamidine activation of a brachiopod DEG/ENaC/ASIC channel” (The Journal of Biological Chemistry, 2024):
Entries after “also recorded” stand apart in the source; their conditions may differ. Like-named read-outs stand apart in the source and are kept apart here.

Assays:
[1] = biological target: DiaaNaC (diarylamidine-activated Na+ channel) (Novocrania anomala, UniProt A0AAU8BSW0); test: Two-electrode voltage clamp of Xenopus laevis oocytes expressing WT DiaaNaC; assay type: cell-based; settings: for inward currents in absence of extracellular Na+: 1 mM compound, 140 KCl instead of NaCl; for activation of DiaaNaC (agonist activity): compound at 1 mM; for reversal potential (Erev) of pentamidine-gated current: n = 5
Method: (§1) Before electrophysiological recordings or surface expression determination, the oocytes were cultured for 3 days at 18 °C in 50% Leibowitz medium (L1518, Merck), supplemented with 0.25 mg/ml gentamicin, 1 mM L-glutamine, and 15 mM Hepes (pH 7.6). For surface expression detection, mouse anti-Myc tag monoclonal IgG1 antibody (MA121316, Fisher Scientific) was used to detect the myc tag attached to the 3′-end of all the constructs used in this work, and the protocol previously used in our lab was followed ([47]) using a Zeiss Axio Scope A1 microscope. The intensity of the expression signal was quantified by tracing a perpendicular line across the oocyte membrane and measuring the gray values with ImageJ software ([48]).
Whole cell currents were recorded from oocytes by two-electrode voltage clamp using an OC-725D amplifier (Warner Instruments) controlled via an Axon Digitata 1550B interface and pClamp v11 (Molecular Devices), acquired at 1 kHz, and filtered at 200 Hz. Currents were analyzed in pClamp v10.7 software (Molecular Devices) and additionally filtered at 10 Hz for display in figures. Oocytes were clamped at −60 mV, unless otherwise indicated, and continuously perfused with a bath solution containing (in mM): 140 NaCl, 1.8 BaCl2, and 10 Hepes. The pH was adjusted to 7.5 with NaOH, HCl, or KOH, as appropriate. For current–voltage relationships where K^+ replaced Na^+, KCl replaced NaCl in the above bath solution. In most experiments, activating solution was applied to oocytes in between resting periods of at least 30 to 60 s. After retrieving current amplitude from pClamp, all data were analyzed in Prism v9 (GraphPad Software). Currents were normalized by dividing by the maximum current at that oocyte, giving “I/Imax” in most concentration–response graphs. For graphs in figures and for calculating half-maximal effective (or inhibitory) concentration (EC50 or IC50) values, variable slope nonlinear regression was used in Prism v9, with the equation Y = Bottom + (Top-Bottom)/ […] 10^∧((LogEC50-X)∗HillSlope)), and maximum was constrained to one and minimum to zero. Curves in figures are fit to the mean data points. EC50 and IC50 values reported in text and used in statistical comparisons are means from curve fits to data on individual oocytes.

DiaaNaC E82A = test: Two-electrode voltage clamp, DiaaNaC E82A mutant in oocytes; assay type: cell-based, Novocrania anomala
Text: (§2) The DiaaNaC full-length coding sequence was amplified by PCR from N. anomala cDNA and subcloned via SalI and BamHI sites into a pSP64 (polyA) vector (P1241, Promega) modified to contain the X. laevis globin 5′ and 3′ UTRs and a C-terminal Myc-tag linked to the final DiaaNaC residue via Gly-Ser linker (the BamHI site) (see ([20]) for full vector sequence). The cDNA sequence was deposited in NCBI GenBank accession number PP942623. Recombinant PCR with Phusion High-Fidelity DNA polymerase (F-549L, Thermo Fisher Scientific) was used to perform site-directed mutagenesis, as described previously ([45]). […] EcoRI (FD0274, Thermo Fisher Scientific) was used to linearize the cDNAs via a site shortly after the poly(A) sequence, and the mMESSAGE mMACHINE SP6 Transcription Kit (AM1340, Thermo Fisher Scientific) was used to synthesize cRNA.
as §1
(§3) Whole cell currents were recorded from oocytes by two-electrode voltage clamp using an OC-725D amplifier (Warner Instruments) controlled via an Axon Digitata 1550B interface and pClamp v11 (Molecular Devices), acquired at 1 kHz, and filtered at 200 Hz. Currents were analyzed in pClamp v10.7 software (Molecular Devices) and additionally filtered at 10 Hz for display in figures. […] After retrieving current amplitude from pClamp, all data were analyzed in Prism v9 (GraphPad Software). […]

DiaaNaC E358A = test: Two-electrode voltage clamp, DiaaNaC E358A mutant in oocytes; assay type: cell-based, Novocrania anomala
Text: as §2, §1, §3

DiaaNaC L70S = test: Two-electrode voltage clamp, DiaaNaC L70S mutant in oocytes; assay type: cell-based, Novocrania anomala; settings: 0 mV
Text: The DiaaNaC full-length coding sequence was amplified by PCR from N. anomala cDNA and subcloned via SalI and BamHI sites into a pSP64 (polyA) vector (P1241, Promega) modified to contain the X. laevis globin 5′ and 3′ UTRs and a C-terminal Myc-tag linked to the final DiaaNaC residue via Gly-Ser linker (the BamHI site) (see ([20]) for full vector sequence). The cDNA sequence was deposited in NCBI GenBank accession number PP942623. Recombinant PCR with Phusion High-Fidelity DNA polymerase (F-549L, Thermo Fisher Scientific) was used to perform site-directed mutagenesis, as described previously ([45]). […]
Before electrophysiological recordings or surface expression determination, the oocytes were cultured for 3 days at 18 °C in 50% Leibowitz medium (L1518, Merck), supplemented with 0.25 mg/ml gentamicin, 1 mM L-glutamine, and 15 mM Hepes (pH 7.6). […] The intensity of the expression signal was quantified by tracing a perpendicular line across the oocyte membrane and measuring the gray values with ImageJ software ([48]).
Whole cell currents were recorded from oocytes by two-electrode voltage clamp using an OC-725D amplifier (Warner Instruments) controlled via an Axon Digitata 1550B interface and pClamp v11 (Molecular Devices), acquired at 1 kHz, and filtered at 200 Hz. Currents were analyzed in pClamp v10.7 software (Molecular Devices) and additionally filtered at 10 Hz for display in figures. […]

DiaaNaC G6′S = test: Two-electrode voltage clamp, DiaaNaC G6′S mutant in oocytes; assay type: cell-based, Novocrania anomala
Text: as §2, §1, §3

Chain of DiaaNaC (diarylamidine-activated Na+ channel) (A0AAU8BSW0 entry or part of it): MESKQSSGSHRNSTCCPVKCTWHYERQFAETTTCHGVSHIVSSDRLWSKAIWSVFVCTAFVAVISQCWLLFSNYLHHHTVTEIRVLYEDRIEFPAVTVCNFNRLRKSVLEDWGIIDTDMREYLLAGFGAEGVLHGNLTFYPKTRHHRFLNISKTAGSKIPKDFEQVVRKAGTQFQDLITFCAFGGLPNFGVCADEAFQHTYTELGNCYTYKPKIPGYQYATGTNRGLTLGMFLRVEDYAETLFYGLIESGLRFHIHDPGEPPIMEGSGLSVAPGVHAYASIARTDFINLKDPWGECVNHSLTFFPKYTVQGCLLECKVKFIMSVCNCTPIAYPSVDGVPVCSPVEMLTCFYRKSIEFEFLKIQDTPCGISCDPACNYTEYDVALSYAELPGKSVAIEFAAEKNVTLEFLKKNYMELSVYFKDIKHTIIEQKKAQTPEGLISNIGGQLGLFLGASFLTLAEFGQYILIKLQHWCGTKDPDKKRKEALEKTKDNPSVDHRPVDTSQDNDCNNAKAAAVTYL

SMILES: N=C(N)c1ccc(-c2cc3ccc(C(=N)N)cc3[nH]2)cc1 [DAPI, 4′,6-diamidino-2-phenylindole]
- inward currents in absence of extracellular Na+ ([1]; −60 mV): tiny, if any

SMILES: Cc1nc(N=C(N)N)nc2ccccc12 [GMQ, 2-(4-methylquinazolin-2-yl)guanidine]
- activation of DiaaNaC (agonist activity) ([1]; −60 mV): none of these compounds activated

SMILES: C[C@H](CCC(=O)O)[C@H]1CC[C@H]2[C@@H]3[C@@H](O)C[C@@H]4C[C@H](O)CC[C@]4(C)[C@H]3CC[C@]12C [Ursodeoxycholic acid, ursodeoxycholic acid]
- current activated ([1]; UDCA 2 mM, −60 mV, n = 7): 73.1 ± 10 nA

SMILES: NC(N)=NCCCCN=C(N)N [arcaine]
- activation of DiaaNaC (agonist activity) ([1]; −60 mV): neither activated; also recorded: none of these compounds activated

SMILES: N=C(N)c1ccc(/N=N/Nc2ccc(C(=N)N)cc2)cc1 [diminazene]
- inward currents in absence of extracellular Na+ ([1]; −60 mV): tiny, if any
- concentration that activates DiaaNaC ([1]; WT): ≥ 300 µM
- concentration that blocks DiaaNaC ([1]; WT): ≥ 1 mM
- effect on constitutive current ([1]; diminazene 1 mM, absence of Ca2+): without inhibiting the constitutive current
- inward currents activated ([1]; diminazene 1 mM, absence of Ca2+, −60 mV, n = 7): 1.0 ± 0.2 μA
- EC50 ([1]; holding potential 0 mV, WT, read-out: diminazene EC50 for activation): 409 ± 71 µM
- EC50 ([1]; −60 mV, absence of Ca2+, WT, read-out: EC50 for activation of DiaaNaC): 287 µM
- inhibition at 1000 µM ([1]; −100 mV, 1 mM diminazene, read-out: block of the agonist-gated current): ~100%
- diminazene potency compared to WT (DiaaNaC E82A; 0 mV): significantly reduced
- diminazene agonist potency compared to WT (DiaaNaC E82A; −60 mV): decrease in agonist potency
- channel block by diminazene (DiaaNaC E82A; −60 mV, 1 and 3 mM diminazene): noticeable block develops
- diminazene potency compared to WT (DiaaNaC E358A; 0 mV): significantly reduced
- diminazene agonist potency compared to WT (DiaaNaC E358A; −60 mV): decrease in agonist potency
- diminazene concentration at which block occurs (DiaaNaC E358A; −60 mV): 3 mM
- diminazene-gated currents (DiaaNaC L70S): abolished
- diminazene potency compared to WT (DiaaNaC G6′S; 0 mV): significantly reduced
- diminazene agonist potency compared to WT (DiaaNaC G6′S; −60 mV): decrease in agonist potency
- channel block by diminazene (DiaaNaC G6′S; −60 mV, even at 3 mM diminazene): block was not evident

SMILES: N=C(N)c1ccc(OCCCCCOc2ccc(C(=N)N)cc2)cc1 [pentamidine]
- reversal potential (Erev) of pentamidine-gated current ([1]; 150 μM pentamidine, extracellular NaCl): 53.5 ± 5.0 mV
- reversal potential (Erev) of pentamidine-gated current ([1]; 450 μM pentamidine, extracellular NaCl): 57.6 ± 3.4 mV
- pentamidine EC50 in the presence of amiloride ([1]; 600 μM amiloride): not significantly altered
- EC50 ([1]; EC50 for activation of DiaaNaC, −60 mV, absence of Ca2+, WT): 592 ± 30.7 µM
- reversal potential (Erev) of pentamidine-gated current ([1]; K+ the only monovalent cation in extracellular solution, pentamidine 450 μM, estimated): −12.2 ± 4.6 mV
- EC50 ([1]; pentamidine EC50, +10 mV, n = 4): 959 ± 80.7 µM
- EC50 ([1]; pentamidine EC50, +80 mV, n = 4): 1030 ± 101 µM
- EC50 ([1]; pentamidine EC50, −100 mV): 471 ± 38.4 µM
- EC50 ([1]; pentamidine EC50 with Ca2+, 1.8 mM Ca2+, n = 6): 1000 ± 100 µM
- block of the agonist-gated current ([1]; −100 mV, 1 mM pentamidine): no such block

SMILES: NCCCCNCCCN [spermidine]
- activation of DiaaNaC (agonist activity) ([1]; −60 mV): neither activated

SMILES: NCCCNCCCCNCCCN [spermine]
- activation of DiaaNaC (agonist activity) ([1]; −60 mV): neither activated; also recorded: none of these compounds activated
